Measurements from US20170327494A1, “NON-INVASIVE VENTILATION WITH HIGH FREQUENCY OSCILLATIONS” (KONINKLIJKE PHILIPS N.V., priority 2014, published 2017).

N#C/C(=C1/SCC(c2cc(Cl)sc2Cl)S1)n1ccnc1 (stereo not shown) [I.h.25, (2E)-2-[4-(2,5-dichloro-3-thienyl)-1,3-dithiolan-2-ylidene]-2-imidazol-1-yl-acetonitrile]
melting point: 117 to 119 °C
